Results published in US4696912A, “Stabilized compositions” (priority 1986, dated 1987).
In brackets after ≈: the same amount, converted by molar mass. Read-outs that look alike come from different tables or passages of the source.

Columns and labels:
[1] = Stability in aqueous solution (HPLC assay); format: physicochemical; conditions: for remaining at 168 h / remaining at 336 h / remaining at 552 h / remaining at 48 h: aqueous solution, read-out: % CL-1565-A Remaining; for remaining at 168 h: 7 days; for remaining at 336 h: 14 days; for remaining at 48 h: 2 days
Experimental: ^b Solutions prepared by adding sodium ascorbate to solutions of
CL1565-A to yield an equimolar concentration.
(§1) CL-1565-A content was assayed by HPLC using a uBondapak C-18 silica gel column (Waters Assoc.) and 0.05 M pH 6.8 sodium phosphate buffer--acetonitrile (89:11) as the mobile phase, at a flow rate of 2 mL/minute. The retention time of CL-1565-A in this system is approximately 4.7 minutes. Solid samples were reconstituted in 100 mL of water immediately prior to HPLC assay. Solutions of CL-1565-A were diluted to a final concentration of 300 ug/mL with water prior to assay.

Saccharomyces italicus = test: Antifungal activity, paper disk zone of inhibition; format: cell-based; conditions: 12.7 mm paper disks, 500 ug/ml, overnight at 28° C.; read-out: Zone diameter
Experimental: (§2) Paper disks (12.7 mm in diameter) impregnated with an aqueous solution containing 500 ug of CL-1565-A/ml were placed on a layer of agar inoculated with the indicated microorganisms. After incubation overnight at 28° C., the following zones of inhibition were observed.

Saccharomyces cervisiae = test: Antifungal activity, paper disk zone of inhibition; format: cell-based; conditions: 12.7 mm paper disks, 500 ug/ml, overnight at 28° C., read-out: Zone diameter
Experimental: as §2

P388 Lymphatic Leukemia = test: In vivo antitumor activity against P388 lymphatic leukemia in mice
Excerpt: In Vivo Antitumor Activity of CL-1565-A Against P388 Lymphatic Leukemia in Mice
The test method used is based on that described in Cancer Chemother. Reports 3:1-87 (part 3). 1972.

[2] = Stability in solid state form (HPLC assay); format: physicochemical; conditions: for remaining at 168 h / remaining at 504 h / remaining at 840 h: Table 1, solid state; for remaining at 168 h: 1 week; for remaining at 168 h / remaining at 504 h / remaining at 840 h / remaining at 2160 h / remaining at 3600 h / remaining at 6480 h / remaining at 16560 h: read-out: % CL-1565-A Remaining; for remaining at 504 h: 3 weeks; for remaining at 840 h: 5 weeks; for remaining at 2160 h / remaining at 3600 h / remaining at 6480 h / remaining at 16560 h: Table 3, solid form; for remaining at 2160 h: 3 months; for remaining at 3600 h: 5 months; for remaining at 6480 h: 9 months; for remaining at 16560 h: 23 months
Experimental: *Samples prepared by lyophilization of 1.5 mL aliquots of an aqueous
solution containing 15 mg of CL1565-A per ml.
^a Samples prepared by lyophilization of 1.5 mL of an aqueous solutio
containing 15 mg/mL of CL1565-A in 6mL serum vials.
^b Samples prepared by mixing CL1565-A and sodium ascorbate (1:1 mola
ratio) in solution prior to lyophilization.
as §1

L1210 Leukemia Cells = test: In vitro activity of CL-1565-A against L1210 leukemia cells; format: cell-based; conditions: Mus musculus, read-out: ID50 (the source's name)
[3] = Table 2, aqueous solution 5 mg/mL, 5° C.
[4] = Table 2, aqueous solution 5 mg/mL, 25° C.
[5] = Table 2, aqueous solution 15 mg/mL, 5° C.
[6] = Table 2, aqueous solution 15 mg/mL, 25° C.

CC(O)(C=CC1CC=CC(=O)O1)C(CC(O)C=CC=CC=CCO)OP(=O)(O)O (stereo not shown) [CL-1565-A]
remaining at 168 h [1, 3]: 92% | remaining at 336 h [1, 3]: 83% | remaining at 552 h ([1]; Table 2, aqueous solution 5 mg/mL, 5° C., 23 days): 76% | remaining at 168 h [1, 4]: 77% | remaining at 336 h [1, 4]: 63% | remaining at 552 h ([1]; Table 2, aqueous solution 5 mg/mL, 25° C., 23 days): 45% | remaining at 168 h [1, 5]: 81% | remaining at 336 h [1, 5]: 76% | remaining at 552 h ([1]; Table 2, aqueous solution 15 mg/mL, 5° C., 23 days): 66% | remaining at 168 h [1, 6]: 67% | remaining at 336 h [1, 6]: 55% | remaining at 552 h ([1]; Table 2, aqueous solution 15 mg/mL, 25° C., 23 days): 42% | remaining at 168 h ([1]; Table 2, aqueous solution 15 mg/mL, 37° C.): 35% | remaining at 48 h ([1]; Table 4, aqueous solution 15 mg/mL, 5° C.): 90% | remaining at 552 h ([1]; Table 4, aqueous solution 15 mg/mL, 5° C., 23 days): 66% | remaining at 48 h ([1]; Table 4, aqueous solution 15 mg/mL, 25° C.): 87% | remaining at 552 h ([1]; Table 4, aqueous solution 15 mg/mL, 25° C., 23 days): 42% | degraded at 552 h ([1]; water, 23 days, 15 mg/mL in aqueous solution, read-out: decomposition): 48% | zone of inhibition at 500 µg/mL (Saccharomyces italicus): 17 mm | zone of inhibition at 500 µg/mL (Saccharomyces cervisiae): 25 mm | T/C × 100 (P388 Lymphatic Leukemia; 1.1 mg/kg/day, test-1): 170 | T/C × 100 (P388 Lymphatic Leukemia; 1.1 mg/kg/day, test-2): 139 | T/C × 100 (P388 Lymphatic Leukemia; 2.1 mg/kg/day, test-1): 173 | T/C × 100 (P388 Lymphatic Leukemia; 2.1 mg/kg/day, test-2): 157 | T/C × 100 (P388 Lymphatic Leukemia; 4.3 mg/kg/day, test-1): 170 | T/C × 100 (P388 Lymphatic Leukemia; 4.3 mg/kg/day, test-2): 172 | T/C × 100 (P388 Lymphatic Leukemia; 6.3 mg/kg/day, test-3): 142 | T/C × 100 (P388 Lymphatic Leukemia; 8.5 mg/kg/day, test-1): 256 | T/C × 100 (P388 Lymphatic Leukemia; 8.5 mg/kg/day, test-2): 209 | T/C × 100 (P388 Lymphatic Leukemia; 12.5 mg/kg/day, test-3): 150 | T/C × 100 (P388 Lymphatic Leukemia; 17 mg/kg/day, test-1): 256 | T/C × 100 (P388 Lymphatic Leukemia; 17 mg/kg/day, test-2): 248 | T/C × 100 (P388 Lymphatic Leukemia; 25 mg/kg/day, test-3): 174 | remaining at 168 h ([2]; 5° C.): 100% | remaining at 504 h ([2]; 5° C.): 100% | remaining at 840 h ([2]; 5° C.): 100% | remaining at 168 h ([2]; 25° C.): 87% | remaining at 504 h ([2]; 25° C.): 77% | remaining at 840 h ([2]; 25° C.): 69% | remaining at 168 h ([2]; 37° C.): 70% | remaining at 504 h ([2]; 37° C.): 26% | remaining at 168 h ([2]; -15° C.): 100% | remaining at 504 h ([2]; -15° C.): 100% | remaining at 840 h ([2]; -15° C.): 100% | remaining at 2160 h ([2]; 5°): 88% | remaining at 3600 h ([2]; 5°): 86% | remaining at 6480 h ([2]; 5°): 79% | remaining at 16560 h ([2]; 5°): 74% | remaining at 2160 h ([2]; 25°): 61% | remaining at 2160 h ([2]; -15°): 100% | remaining at 3600 h ([2]; -15°): 100% | remaining at 6480 h ([2]; -15°): 100% | remaining at 16560 h ([2]; -15°): 100% | degraded at 840 h ([2]; five weeks at 25° C., read-out: decomposition): 31% | IC50 (L1210 Leukemia Cells): 0.078 µg/mL (≈ 0.181 µM)
